Results from patent US20200231614A1, “PSMA TARGETED RADIOHALOGENATED UREAS FOR CANCER RADIOTHERAPY” (THE JOHNS HOPKINS UNIVERSITY, priority 2015, published 2020).
Read-outs that look alike come from different tables or passages of the source.

System: PSMA + PC-3 PiP and PSMA − PC-3 flu tumor xenografts
Conditions: for Biodistribution: PC-3 PiP: PSMA+ tumor xenograft; for Biodistribution: PC-3 flu: PSMA− tumor xenograft
[1] = 21 H post-injection, comparative Table 13

In the case of N=C(N)NCc1ccc(C(=O)NCCCCC(NC(=O)CCCCCCC(=O)NCCCC[C@H](NC(=O)N[C@@H](CCC(=O)O)C(=O)O)C(=O)O)C(=O)O)cc1[211At] (some centres unmarked) [[^211At] labeled PSMA-904], the “Biodistribution: Lrg Int.” value (1 H post-injection) is reported as 0.75 ± 0.98 % ID/g, the “Biodistribution: Sm int.” value (1 H post-injection) is reported as 33.9 ± 5.49 % ID/g and the “Biodistribution: bladder” value (1 H post-injection) is reported as 1.17 ± 0.20 % ID/g. The “Biodistribution: blood” value (1 H post-injection) was 0.65 ± 0.33 % ID/g, the “Biodistribution: heart” value (1 H post-injection) was 0.84 ± 0.27 % ID/g and the “Biodistribution: kidney” value (1 H post-injection) was 86.5 ± 15.5 % ID/g. The “Biodistribution: liver” value (1 H post-injection) was 5.11 ± 4.13 % ID/g, the “Biodistribution: lung” value (1 H post-injection) was 2.24 ± 0.51 % ID/g and the “Biodistribution: muscle” value (1 H post-injection) was 0.38 ± 0.16 % ID/g. The “Biodistribution: spleen” value (1 H post-injection) was 9.51 ± 2.76 % ID/g, the “Biodistribution: stomach” value (1 H post-injection) was 1.64 ± 0.62 % ID/g and the “Biodistribution: thyroid” value (1 H post-injection) was 0.51 ± 0.16 % ID/g. The “Biodistribution: Lrg Int.” value (2 H post-injection) was 26.7 ± 15.3 % ID/g, the “Biodistribution: Sm int.” value (2 H post-injection) was 13.8 ± 10.9 % ID/g and the “Biodistribution: bladder” value (2 H post-injection) was 1.30 ± 0.24 % ID/g. For the same molecule, the “Biodistribution: blood” value (2 H post-injection) was 0.35 ± 0.03 % ID/g, the “Biodistribution: heart” value (2 H post-injection) was 0.76 ± 0.11 % ID/g and the “Biodistribution: kidney” value (2 H post-injection) was 87.7 ± 11.0 % ID/g. The “Biodistribution: liver” value (2 H post-injection) was 3.80 ± 2.39 % ID/g, the “Biodistribution: lung” value (2 H post-injection) was 1.96 ± 0.26 % ID/g and the “Biodistribution: muscle” value (2 H post-injection) was 0.21 ± 0.03 % ID/g. The “Biodistribution: spleen” value (2 H post-injection) was 4.31 ± 1.96 % ID/g, the “Biodistribution: stomach” value (2 H post-injection) was 2.86 ± 0.67 % ID/g and the “Biodistribution: thyroid” value (2 H post-injection) was 1.03 ± 0.26 % ID/g. For the same molecule, the “Biodistribution: Lrg Int.” value (21 H post-injection) was 8.55 ± 5.07 % ID/g, the “Biodistribution: Sm int.” value (21 H post-injection) was 1.51 ± 0.91 % ID/g and the “Biodistribution: bladder” value (21 H post-injection) was 1.99 ± 0.54 % ID/g. The “Biodistribution: blood” value (21 H post-injection) was 0.48 ± 0.13 % ID/g, the “Biodistribution: heart” value (21 H post-injection) was 1.12 ± 0.27 % ID/g and the “Biodistribution: kidney” value (21 H post-injection) was 4.38 ± 3.46 % ID/g. The “Biodistribution: liver” value (21 H post-injection) was 0.59 ± 0.21 % ID/g, the “Biodistribution: lung” value (21 H post-injection) was 2.89 ± 0.93 % ID/g and the “Biodistribution: muscle” value (21 H post-injection) was 0.22 ± 0.06 % ID/g. For the same molecule, the “Biodistribution: spleen” value (21 H post-injection) was 2.07 ± 0.68 % ID/g, the “Biodistribution: stomach” value (21 H post-injection) was 9.36 ± 2.18 % ID/g and the “Biodistribution: thyroid” value (21 H post-injection) was 3.74 ± 1.42 % ID/g. For the same molecule, the “Biodistribution: PC-3 PiP” value (1 H post-injection) was 22.7 ± 5.42 % ID/g, the “Biodistribution: PC-3 PiP” value (2 H post-injection) was 21.1 ± 6.16 % ID/g and the “Biodistribution: PC-3 PiP” value (21 H post-injection) was 12.1 ± 5.03 % ID/g. The “Biodistribution: PC-3 flu” value (1 H post-injection) was 0.80 ± 0.30 % ID/g, the “Biodistribution: PC-3 flu” value (2 H post-injection) was 0.52 ± 0.05 % ID/g and the “Biodistribution: PC-3 flu” value (21 H post-injection) was 0.84 ± 0.23 % ID/g.
For O=C(O)CC[C@H](NC(=O)N[C@@H](CCC(=O)NCCc1ccc([211At])cc1)C(=O)O)C(=O)O [[^211At]HS-549], the “Biodistribution: Lrg Int.” value (1 H post-injection) was 1.16 ± 0.20 % ID/g, the “Biodistribution: Sm int.” value (1 H post-injection) was 5.52 ± 0.82 % ID/g and the “Biodistribution: bladder” value (1 H post-injection) was 5.85 ± 1.62 % ID/g. The “Biodistribution: blood” value (1 H post-injection) was 5.53 ± 0.84 % ID/g, the “Biodistribution: heart” value (1 H post-injection) was 4.34 ± 0.96 % ID/g and the “Biodistribution: kidney” value (1 H post-injection) was 46.7 ± 8.24 % ID/g. For the same molecule, the “Biodistribution: liver” value (1 H post-injection) was 7.94 ± 2.15 % ID/g, the “Biodistribution: lung” value (1 H post-injection) was 9.77 ± 1.75 % ID/g and the “Biodistribution: muscle” value (1 H post-injection) was 1.11 ± 0.29 % ID/g. The “Biodistribution: spleen” value (1 H post-injection) was 8.79 ± 2.09 % ID/g, the “Biodistribution: stomach” value (1 H post-injection) was 7.07 ± 2.24 % ID/g and the “Biodistribution: thyroid” value (1 H post-injection) was 3.24 ± 0.56 % ID/g. For the same molecule, the “Biodistribution: Lrg Int.” value (2 H post-injection) was 4.59 ± 0.81 % ID/g, the “Biodistribution: Sm int.” value (2 H post-injection) was 3.81 ± 1.24 % ID/g and the “Biodistribution: bladder” value (2 H post-injection) was 5.04 ± 0.87 % ID/g. The “Biodistribution: blood” value (2 H post-injection) was 2.87 ± 0.40 % ID/g, the “Biodistribution: heart” value (2 H post-injection) was 3.36 ± 0.59 % ID/g and the “Biodistribution: kidney” value (2 H post-injection) was 40.4 ± 15.5 % ID/g. The “Biodistribution: liver” value (2 H post-injection) was 4.65 ± 1.28 % ID/g, the “Biodistribution: lung” value (2 H post-injection) was 8.24 ± 2.25 % ID/g and the “Biodistribution: muscle” value (2 H post-injection) was 0.76 ± 0.18 % ID/g. For the same molecule, the “Biodistribution: spleen” value (2 H post-injection) was 6.13 ± 1.59 % ID/g, the “Biodistribution: stomach” value (2 H post-injection) was 14.3 ± 3.18 % ID/g and the “Biodistribution: thyroid” value (2 H post-injection) was 4.11 ± 2.0 % ID/g. For the same molecule, the “Biodistribution: Lrg Int.” value (21 H post-injection) was 0.93 ± 0.41 % ID/g, the “Biodistribution: Sm int.” value (21 H post-injection) was 1.28 ± 0.30 % ID/g and the “Biodistribution: bladder” value (21 H post-injection) was 2.78 ± 0.82 % ID/g. For the same molecule, the “Biodistribution: blood” value (21 H post-injection) was 0.92 ± 0.15 % ID/g, the “Biodistribution: kidney” value (21 H post-injection) was 2.60 ± 0.77 % ID/g and the “Biodistribution: liver” value (21 H post-injection) was 0.89 ± 0.13 % ID/g. The “Biodistribution: lung” value (21 H post-injection) was 4.26 ± 0.72 % ID/g, the “Biodistribution: muscle” value (21 H post-injection) was 0.29 ± 0.09 % ID/g and the “Biodistribution: spleen” value (21 H post-injection) was 2.31 ± 0.67 % ID/g. For the same molecule, the “Biodistribution: stomach” value (21 H post-injection) was 12.6 ± 6.20 % ID/g, the “Biodistribution: thyroid” value (21 H post-injection) was 3.78 ± 0.63 % ID/g and the “Non-target organ uptake: spleen” value [1] was 2.2 % D/g. The “Non-target organ uptake: stomach” value [1] was 12.6 % D/g, the “Non-target organ uptake: thyroid” value [1] was 3.8 % D/g and the “Biodistribution: PC-3 PiP” value (1 H post-injection) was 43.25 ± 9.81 % ID/g. The “Biodistribution: PC-3 PiP” value (2 H post-injection) was 42.0 ± 7.16 % ID/g, the “Biodistribution: PC-3 PiP” value (21 H post-injection) was 10.6 ± 9.91 % ID/g and the “Biodistribution: PC-3 flu” value (1 H post-injection) was 3.48 ± 0.53 % ID/g. For the same molecule, the “Biodistribution: PC-3 flu” value (2 H post-injection) was 2.82 ± 0.60 % ID/g, the “PSMA positive tumor uptake (in words)” value (biodistributions of Tables 2, 3, 9, 10) was “demonstrated PSMA positive tumor uptake” and the “Renal clearance and normal tissue uptake (in words)” value (compared with YC-I-27) was “faster renal clearance and lower normal tissue uptake than YC-I-27”. The “Clearance from the kidneys (in words)” value (compared with [^131I]YC-I-27 and [^211At]YC-I-27) was “clear from the kidneys giving higher tumor to kidney ratios” and the “In vivo stability of the At-211 label (in words)” value (from uptake in stomach, spleen and thyroid compared to the ^131I analogue) was “some instability of the At-211 label”.
